Numbers after ± are expanded uncertainties.
Test: mn = molality of the nth substance listed, in mol/kg
Details: for electrical conductivity: 100 kPa, Liquid, Frequency=0.002 MHz, Alternating current cell with electrodes; for surface tension liquid-gas: Ring tensiometer

CCCCCCCCCCCCCCCC[n+]1ccn(C)c1.[Cl-] [1-hexadecyl-3-methylimidazolium chloride] + O
Details | electrical conductivity, 303.15 K [S/m] | electrical conductivity, 313.15 K [S/m] | electrical conductivity, 323.15 K [S/m] | surface tension liquid-gas, 313.15 K [mN/m]
m1 = 1.3e-05 | – | – | – | 57.9 ± 2.4
m1 = 4.4e-05 | – | – | – | 56.4 ± 2.4
m1 = 0.00011 | 0.00121 ± 0.00012 | 0.00152 ± 0.00015 | 0.00171 ± 0.00017 | –
m1 = 0.000146 | – | – | – | 53.2 ± 2.2
m1 = 0.00022 | 0.00234 ± 0.00023 | 0.00295 ± 0.0003 | 0.00334 ± 0.00033 | –
m1 = 0.000247 | – | – | – | 50.1 ± 2.1
m1 = 0.00033 | 0.00341 ± 0.00034 | 0.00432 ± 0.00043 | 0.00491 ± 0.00049 | –
m1 = 0.00043 | 0.00444 ± 0.00044 | 0.0056 ± 0.00056 | 0.0064 ± 0.00064 | –
m1 = 0.000435 | – | – | – | 46.4 ± 1.9
m1 = 0.00052 | 0.00541 ± 0.00054 | 0.00686 ± 0.00069 | 0.00791 ± 0.00079 | –
m1 = 0.00062 | 0.00636 ± 0.00064 | 0.00803 ± 0.0008 | 0.00929 ± 0.00093 | –
m1 = 0.00071 | 0.00726 ± 0.00073 | 0.00918 ± 0.00092 | 0.0106 ± 0.0011 | –
m1 = 0.000734 | – | – | – | 39.2 ± 1.6
m1 = 0.00079 | 0.00809 ± 0.00081 | 0.0102 ± 0.001 | 0.0119 ± 0.0012 | –
m1 = 0.00088 | 0.0088 ± 0.00088 | 0.0112 ± 0.0011 | 0.0133 ± 0.0013 | –
m1 = 0.00096 | 0.00933 ± 0.00093 | 0.0119 ± 0.0012 | 0.0143 ± 0.0014 | –
m1 = 0.00104 | 0.00977 ± 0.00098 | 0.0125 ± 0.0013 | 0.0153 ± 0.0015 | –
m1 = 0.00112 | 0.0102 ± 0.001 | 0.0131 ± 0.0013 | 0.0161 ± 0.0016 | –
m1 = 0.00119 | 0.0106 ± 0.0011 | 0.0136 ± 0.0014 | 0.0168 ± 0.0017 | –
m1 = 0.00126 | 0.0109 ± 0.0011 | 0.0141 ± 0.0014 | 0.0175 ± 0.0018 | –
m1 = 0.00127 | – | – | – | 38.8 ± 1.6
m1 = 0.00133 | 0.0112 ± 0.0011 | 0.0145 ± 0.0014 | 0.0181 ± 0.0018 | –
m1 = 0.00139 | 0.0115 ± 0.0011 | 0.0149 ± 0.0015 | 0.0186 ± 0.0019 | –
m1 = 0.00146 | 0.0118 ± 0.0012 | 0.0154 ± 0.0015 | 0.0192 ± 0.0019 | –
m1 = 0.00153 | 0.0121 ± 0.0012 | 0.0157 ± 0.0016 | 0.0197 ± 0.002 | –
m1 = 0.002558 | – | – | – | 38.8 ± 1.6
m1 = 0.00525 | – | – | – | 38.1 ± 1.6

CCCCCCCCCCCC[N+](C)(C)C.[Br-] [dodecyltrimethylammonium bromide] + O
Details | electrical conductivity, 303.15 K [S/m] | electrical conductivity, 313.15 K [S/m] | electrical conductivity, 323.15 K [S/m] | surface tension liquid-gas, 313.15 K [mN/m]
m1 = 6e-06 | – | – | – | 65.2 ± 2.7
m1 = 2.5e-05 | – | – | – | 63.6 ± 2.7
m1 = 5.6e-05 | – | – | – | 62.5 ± 2.6
m1 = 0.000135 | – | – | – | 61.3 ± 2.6
m1 = 0.000263 | – | – | – | 58.3 ± 2.4
m1 = 0.000739 | – | – | – | 54.7 ± 2.3
m1 = 0.001308 | – | – | – | 51.3 ± 2.1
m1 = 0.00178 | 0.0194 ± 0.0019 | 0.0234 ± 0.0023 | 0.0282 ± 0.0028 | –
m1 = 0.00353 | 0.0374 ± 0.0037 | 0.0467 ± 0.0047 | 0.0547 ± 0.0055 | –
m1 = 0.004064 | – | – | – | 46 ± 1.9
m1 = 0.00524 | 0.0553 ± 0.0055 | 0.0668 ± 0.0067 | 0.0802 ± 0.008 | –
m1 = 0.006048 | – | – | – | 43.3 ± 1.8
m1 = 0.00692 | 0.0727 ± 0.0073 | 0.0871 ± 0.0087 | 0.105 ± 0.01 | –
m1 = 0.008433 | – | – | – | 39.5 ± 1.7
m1 = 0.00857 | 0.0893 ± 0.0089 | 0.107 ± 0.011 | 0.128 ± 0.013 | –
m1 = 0.01019 | 0.106 ± 0.011 | 0.126 ± 0.013 | 0.152 ± 0.015 | –
m1 = 0.01178 | 0.121 ± 0.012 | 0.145 ± 0.015 | 0.174 ± 0.017 | –
m1 = 0.01333 | 0.136 ± 0.014 | 0.163 ± 0.016 | 0.196 ± 0.02 | –
m1 = 0.01486 | 0.149 ± 0.015 | 0.18 ± 0.018 | 0.216 ± 0.022 | –
m1 = 0.01636 | 0.157 ± 0.016 | 0.193 ± 0.019 | 0.234 ± 0.023 | –
m1 = 0.01784 | 0.162 ± 0.016 | 0.201 ± 0.02 | – | –
m1 = 0.01789 | – | – | 0.247 ± 0.025 | –
m1 = 0.01929 | 0.166 ± 0.017 | 0.208 ± 0.021 | 0.258 ± 0.026 | –
m1 = 0.01941 | – | – | – | 36.2 ± 1.5
m1 = 0.02071 | 0.17 ± 0.017 | 0.213 ± 0.021 | 0.265 ± 0.027 | –
m1 = 0.02211 | 0.174 ± 0.017 | 0.219 ± 0.022 | 0.272 ± 0.027 | –
m1 = 0.02348 | 0.178 ± 0.018 | 0.224 ± 0.022 | 0.279 ± 0.028 | –
m1 = 0.02483 | 0.181 ± 0.018 | 0.229 ± 0.023 | 0.285 ± 0.029 | –
m1 = 0.02615 | 0.185 ± 0.019 | 0.234 ± 0.023 | 0.292 ± 0.029 | –
m1 = 0.02746 | 0.189 ± 0.019 | 0.238 ± 0.024 | 0.297 ± 0.03 | –
m1 = 0.02874 | 0.192 ± 0.019 | 0.243 ± 0.024 | 0.304 ± 0.03 | –
m1 = 0.03 | 0.195 ± 0.02 | 0.247 ± 0.025 | 0.31 ± 0.031 | –
m1 = 0.0309 | – | – | – | 37.9 ± 1.6
m1 = 0.0456 | – | – | – | 38.3 ± 1.6
m1 = 0.07211 | – | – | – | 38.8 ± 1.6
m1 = 0.1062 | – | – | – | 38.9 ± 1.6

From the NIST ThermoML archive (doi:10.1021/acs.jced.8b00372)
